The values that follow come from publication PMC3726007 (Journal of medicinal chemistry, 2009).

“Also recorded” adds a separate entry of the source. Where a name gives a salt, the structure may show the parent alone.

In one data set the target is VMAT2 (Rattus norvegicus, UniProt Q01827). In words: [3H]-DA uptake inhibition assay in isolated synaptic vesicles. To be noted: for fold more potent in inhibiting [3H]-DA uptake than in binding to the DTBZ binding site: uptake vs DTBZ binding; for fold more potent in [3H]-DA uptake inhibition than S-configured analogs: 18 and 19 vs 14 and 15; for fold less potent in [3H]-DA uptake inhibition than comparator: 7 vs 2, 26 vs 25.
Sequence of VMAT2 (Q01827 whole entry): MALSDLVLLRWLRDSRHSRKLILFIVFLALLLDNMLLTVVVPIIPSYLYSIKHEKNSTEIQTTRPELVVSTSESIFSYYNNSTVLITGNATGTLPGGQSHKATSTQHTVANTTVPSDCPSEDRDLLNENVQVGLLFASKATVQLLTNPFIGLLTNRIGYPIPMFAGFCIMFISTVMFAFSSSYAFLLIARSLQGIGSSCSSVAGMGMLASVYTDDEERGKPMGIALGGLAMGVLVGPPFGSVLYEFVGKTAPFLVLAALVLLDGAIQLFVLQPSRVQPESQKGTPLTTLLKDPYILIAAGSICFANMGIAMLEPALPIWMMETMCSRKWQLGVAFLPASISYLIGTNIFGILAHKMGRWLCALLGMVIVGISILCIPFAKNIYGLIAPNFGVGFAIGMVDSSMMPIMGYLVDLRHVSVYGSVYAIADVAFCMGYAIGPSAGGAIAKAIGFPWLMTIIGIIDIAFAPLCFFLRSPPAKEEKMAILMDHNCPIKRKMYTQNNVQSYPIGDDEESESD

In data set [1] the test system is α4β2* nicotinic acetylcholine receptors (nAChRs). To be noted: cited from earlier work.
For data set [2], the system named is methamphetamine self-administration. To be noted: animal models; cited from earlier work.
Data set [3] concerns the target DTBZ binding site on VMAT2 (Rattus norvegicus, UniProt Q01827). As to the kind of experiment: [3H]DTBZ binding assay in rat brain synaptic vesicles. To be noted: for fold less potent at DTBZ binding site than comparator: 7 vs 2, 26 vs 25.
The next data set in a line: water solubility. The class given is physicochemical. To be noted: qualitative statement.

Sequence of DTBZ binding site on VMAT2 (Q01827 whole entry): as above

Regarding `c1ccc(CCC[C@@H]2CC[C@H](CCCc3ccccc3)N2)cc1` [Compound 25, Cis-2,5-di(3-phenylpropyl)-pyrrolidine hydrochloride], the “fold more potent in inhibiting [3H]-DA uptake than in binding to the DTBZ binding site” value (“fold more potent in inhibiting” for short) at VMAT2 was “about 20 fold”. As for `CN1[C@@H](CCc2ccccc2)CCC[C@H]1CCc1ccccc1` [Compound 2, cis-N-methyl-2,6-diphenethylpiperidine], the “affinity for α4β2* nAChRs” value in data set [1] is “little affinity”. Further, in data set [2], the effect on self-administration entry is given as “decreases methamphetamine self-administration; also recorded: does not itself support self-administration”. As for `CN1[C@@H](CC(=O)c2ccccc2)CCC[C@H]1C[C@H](O)c1ccccc1` [Compound 1, lobeline], the “affinity for α4β2* nAChRs” value in data set [1] was “high potency”.

In the case of `OC[C@@H](c1ccccc1)N1[C@@H](CCc2ccccc2)CC[C@@H]1CCc1ccccc1` [Compound 19, (2′R)-2-(2S,5S)-2,5-Di(2-phenethyl)-tetrahydro-1H-1-pyrrolyl-2-phenylethan-1-ol], the “fold more potent in [3H]-DA uptake inhibition than S-configured analogs” value on VMAT2 is recorded as “about 10 fold”. Consider `c1ccc(CC[C@@H]2CC[C@H](CCc3ccccc3)N2)cc1` [Compound 6, cis-2,5-Di-(2-phenethyl)-pyrrolidine hydrochloride], for which the “fold more potent in inhibiting” value on VMAT2 was “about 100 fold”. Regarding `CN1[C@H](CCCc2ccccc2)CC[C@@H]1CCCc1ccccc1` [Compound 26, 1-Methyl-cis-2,5-di(3-phenylpropyl)-pyrrolidine hydrochloride], the “fold less potent at DTBZ binding site than comparator” value in data set [3] was found to be 10 fold. Besides, at VMAT2, the “fold less potent in [3H]-DA uptake inhibition than comparator” value is reported as “about 10 fold” and the “fold more potent in inhibiting” value was “about 20 fold”. In the case of `c1ccc(C[C@H]2CC[C@@H](Cc3ccccc3)N2)cc1` [Compound 22, cis-2,5-Di(2-benzyl)-pyrrolidine hydrochloride], the water solubility result in the data set “water solubility” is listed as “water-soluble”. On to `c1ccc(CC[C@H]2CC[C@H](CCc3ccccc3)N2)cc1` [Compound 10, (2S,5S)-di-(2-phenethyl)-pyrrolidine hydrochloride], for which the “fold more potent at DTBZ binding site than N-methyl derivative” value in data set [3] (10 vs 11) is on record as “about 10 fold”. For the compound `OC[C@@H](c1ccccc1)N1[C@H](CCc2ccccc2)CC[C@@H]1CCc1ccccc1` [Compound 18, (2′R)-2-(2S,5R)-2,5-Di-(2-phenethyl)-tetrahydro-1H-1-pyrrolyl-2-phenylethan-1-ol], the “fold more potent in [3H]-DA uptake inhibition than S-configured analogs” value on VMAT2 is listed as “about 10 fold”. Turning to `CN1[C@H](CCc2ccccc2)CC[C@@H]1CCc1ccccc1` [Compound 7, 1-Methyl-cis-2,5-di-(2-phenethyl)-pyrrolidine hydrochloride], the “fold less potent at DTBZ binding site than comparator” value in data set [3] is given as “about 10 fold”. In addition, at VMAT2, the “fold less potent in [3H]-DA uptake inhibition than comparator” value is given as 10 fold and the “fold more potent in inhibiting” value is “about 30 fold”. Take `c1ccc(CC[C@H]2CCC[C@@H](CCc3ccccc3)N2)cc1` [Compound 3, reference compound]: on VMAT2, the “fold more potent in inhibiting” value is “about 100 fold”.
